{"source": "patent US7618988B2", "about": "“Use of substituted aminomethyl chromans” (Merck Patentgesellschaft, priority 2001, dated 2009)", "key": {"parkinsonian monkeys": {"tested_on": "parkinsonian monkeys", "settings": "literature; cited from earlier work"}, "dopamine D4 receptors": {"molecular_target": "dopamine D4 receptors (Homo sapiens, UniProt P21917)", "sequence (P21917 whole entry)": "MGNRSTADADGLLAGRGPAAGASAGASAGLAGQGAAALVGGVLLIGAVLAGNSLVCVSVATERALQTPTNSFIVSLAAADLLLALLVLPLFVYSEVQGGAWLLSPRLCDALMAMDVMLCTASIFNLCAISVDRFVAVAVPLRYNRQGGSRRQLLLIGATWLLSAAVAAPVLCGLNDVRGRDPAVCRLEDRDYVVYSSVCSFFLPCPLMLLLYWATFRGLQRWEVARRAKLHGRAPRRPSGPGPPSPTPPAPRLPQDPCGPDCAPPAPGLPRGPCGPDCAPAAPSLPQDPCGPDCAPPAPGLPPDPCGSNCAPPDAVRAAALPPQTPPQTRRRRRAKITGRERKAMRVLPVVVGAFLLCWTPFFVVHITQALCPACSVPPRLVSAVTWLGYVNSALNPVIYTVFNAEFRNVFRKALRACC", "settings": "literature statement; cited from earlier work"}, "cataleptic rat": {"tested_on": "cataleptic rat", "test": "reversal of catalepsy in rats", "type": "in vivo", "settings": "subcutaneous; for ED50: Rattus norvegicus, sc, read-out: ED50 (calculated dose to reverse catalepsy by 50%)", "experimental": "R represents hydrogen or a hydroxyl protecting group, and their optical isomers and pharmaceutically acceptable salts, in particular 2-({[5-(4-fluorophenyl)-pyridin-3ylmethyl]-amino}-methyl)-chroman-4-ol or an optical isomer or a physiologically acceptable salt or solvate thereof, excert an extraordinary potency in reversing catalepsy. Extrapyramidal motor side effects in e.g. rodents are measured by the ability of a drug to induce catalepsy. Catalepsy is defined as a state where an animal continues to remain in an unnormal (nonphysiological ‘uncomfortable’) posture for a long time (e.g.: M. E. Stanley and S. D. Glick, Neuropharmacology, 1996; 15: 393-394; C. J. E. Niemegeers and P. Janssen, Life Sci., 1979, […]). For example, if a hindpaw of a rat is placed on an elevated level, e.g. a platform elevated 3 cm above ground level, a normal rat immediately withdraws the hindpaw from the platform to the ground level. A cataleptic rat remains in this unnatural posture even for minutes."}, "Parkinson patients": {"tested_on": "Parkinson patients", "settings": "literature; cited from earlier work"}, "[1]": {"tested_on": "patients with advanced idiopathic Parkinson's disease", "test": "double-blind study, advanced idiopathic Parkinson's disease with peak-dose dyskinesia", "type": "in vivo, human", "settings": "add on, 2.5 to 10 mg b.i.d., diary card", "from_the_text": "A typical study to investigate the efficacy of the compounds according to the invention for adverse effects in Parkinson's disease is described in the following. 40 patients of either sex with advanced idiopathic Parkinson's disease complicated by “peak-dose” dyskinesia participate in a double-blind study. The main inclusion criteria are Hoehn & Yahr stage ≧2.5 (lit.: Hoehn H. M. et al, Neurology 1967; 17: 427-442), aged 40-75 years, symptom duration of at least 5 years, and a l-dopa treatment duration of at least 3 years. (2R,4R)-2-({[5-(4-fluorophenyl)-pyridin-3ylmethyl]-amino}-methyl)-chroman-4-ol monohydrochloride hemihydrate or placebo is administered as “add on” to the conventional Parkinson treatment, which is maintained unchanged during the whole study. The dose of blinded medication is titrated over a period of 3 weeks in a range from 2.5 to 10 mg b.i.d. Then the medication is kept constant for 3 weeks. Before the start of titration and at the end of the treatment period the patients fill a diary card in 30 min. inervals for 48 hours. The diary card differentiates 5 different states: (1) “on” without dyskinesia, (2) “on” with troublesome dyskinesia, (3) “on” with non-troublesome dyskinesia, (4) “off” time, and (5) time asleep (Hauser R A et al., Clin. Neuropharmacol., 2000, 23, 75-81). The primary outcome variable of the protocol is the change in “on” time with troublesome dyskinesia. […] The other parameters are not changed."}, "[2]": {"tested_on": "schizophrenic inpatients on long-term antipsychotic treatment", "test": "study in tardive dyskinesia (AIMS)", "type": "in vivo, human", "settings": "add on, 2,5 to 20 mg b.i.d., vs placebo period", "from_the_text": "Tardive dyskinesia is a common adverse effect of long-term treatment with neuroleptics. A typical study to investigate the efficacy of the compounds according to the invention in tardive dyskinesia is described in the following. 32 schizophrenic (DSM-III-R) inpatients aged 25-60 years on long-term stable antipsychotic treatment (duration of at least 5 years) entered the study. (2R,4R)-2-({[5-(4-fluorophenyl)-pyridin-3ylmethyl]-amino}-methyl)-chroman-4-ol monohydrochloride hemihydrate or placebo is administered as “add on” to the antipsychotic treatment, which is kept constant during the whole study. The dose of blinded medication is titrated over a period of 3 weeks in a range from 2,5 to 20 mg b.i.d. Then the medication is maintained under double-blind conditions for 2 weeks. After a 2-week wash-out period, the test drugs are crossed over. Assessments of tardive dyskinesia by means of the Abnormal Involuntary Movement Scale (AIMS, see above) and of Parkinsonian extrapyramidal side effects (UPDRS, see above) are made pretreatment and posttreatment."}, "[3]": {"tested_on": "patients with idiopathic Parkinson's disease", "test": "double-blind study, idiopathic Parkinson's disease", "type": "in vivo, human", "settings": "add on, 2.5 to 10 mg b.i.d.", "from_the_text": "A typical study to investigate the efficacy of the compounds according to the invention in the treatment of idiopathic Parkinson's disease is described in the following. 180 patients of either sex with idiopathic Parkinson's disease participate in a double-blind study. The main inclusion criteria are Hoehn & Yahr stage ≧2.0 (Hoehn H. M. et al, Neurology 1967; 17: 427442), aged 50-80 years, symptom duration of at least 5 years. (2R,4R)-2-({[5-(4-fluorophenyl)-pyridin-3ylmethyl]-amino}-methyl)-chroman-4-ol monohydrochloride hemihydrate or placebo is administered as “add on” to the conventional Parkinson treatment, which is maintained unchanged during the whole study. The dose of blinded medication is titrated over a period of 4 weeks in a range from 2.5 to 10 mg b.i.d. Then the medication is kept constant for 1 week. Before the start of titration and at the end of the treatment period the patients fill a diary card in 30 min. intervals for 48 hours. The diary card differentiates 5 different states: (1) “on” without dyskinesia, (2) “on” with troublesome dyskinesia, (3) “on” with non-troublesome dyskinesia, (4) “off” time, and (5) time asleep (Hauser R A et al., Clin. Neuropharmacol., 2000, 23, 75-81). […]"}, "MSA patients": {"tested_on": "MSA patients", "test": "study in MSA patients (UPDRS)", "type": "in vivo, human", "settings": "add on, 2,5 to 20 mg b.i.d.", "experimental": "The study design is similar to that described above for Parkinson's disease. (2R,4R)-2-({[5-(4-fluorophenyl)-pyridin-3ylmethyl]-amino}-methyl)-chroman-4-ol monohydrochloride hemihydrate or placebo is titrated as “add on” to the conventional treatment (dose range 2,5 to 20 mg b.i.d.). After a double-blind dose-finding phase of 3 weeks during which the individual dose is identified for each patient on the basis of tolerability and efficacy, the dose is maintained unchanged for 3 additional weeks. Before the start of titration and at the end of the treatment period a complete UPDRS assessment is performed in each patient (primary outcome measure)."}}, "data": [{"compound": "Cc1ccc2c(c1)C(N1CCN(C)CC1)=Nc1cccnc1N2", "note": "[8-methyl-6-(4-methyl-1-piperazineyl)-11 H-pyrido[2,3-b][1,4,]benzodiazepine]", "values": [{"measurement": "effects in parkinsonian monkeys", "setting": "parkinsonian monkeys", "result": "beneficial effects"}, {"measurement": "selectivity for the dopamine D4 receptor compared to clozapine", "setting": "dopamine D4 receptors", "result": "much increased selectivity"}, {"measurement": "ED50 (calculated dose to reverse catalepsy by 50%)", "setting": "cataleptic rat", "result": 3, "unit": "mg/kg"}]}, {"compound": "O=C1CC2(CCCC2)CC(=O)N1CCCCN1CCN(c2ncccn2)CC1", "note": "[buspirone]", "values": [{"measurement": "anti-dyskinetic effect", "setting": "Parkinson patients", "result": "moderate anti-dyskinetic properties"}, {"measurement": "ED50", "setting": "cataleptic rat", "result": 6, "unit": "mg/kg"}]}, {"compound": "O=C1c2ccccc2S(=O)(=O)N1CCCCN1CCN(c2ncccn2)CC1", "note": "[ipsapirone]", "values": [{"measurement": "ED50", "setting": "cataleptic rat", "result": 10, "unit": "mg/kg"}]}, {"compound": "(2R,4R)-2-({[5-(4-fluorophenyl)-pyridin-3ylmethyl]-amino}-methyl)-chroman-4-ol monohydrochloride hemihydrate", "values": [{"measurement": "other diary parameters", "setting": "[1]", "result": "not changed"}, {"measurement": "“on” time with troublesome dyskinesia", "setting": "[1]", "result": "significant reduction"}, {"measurement": "“on” time without dyskinesia", "setting": "[1]", "result": "significantly increase"}, {"measurement": "AIMS scores", "setting": "[2]", "result": "significantly lower than during placebo period"}, {"measurement": "clinical improvement", "setting": "[3]", "result": "significant clinical improvement"}, {"measurement": "efficacy to treat tremor", "setting": "[3]", "result": "efficacy to treat tremor is shown"}, {"measurement": "UPDRS, Parkinson symptoms", "setting": "MSA patients", "result": "significant clinical improvement of Parkinson symptoms"}]}]}
